These results are taken from patent publication US20210038559A1, “CANNABINOIDS AND DERIVATIVES FOR PROMOTING IMMUNOGENICITY OF TUMOR AND INFECTED CELLS” (priority 2018, published 2021).

Counter-ions that a name gives are not always drawn.

The first assay concerns MHC-I expression by COLO 205 cells. The experiment in a line: cells. Format: cell-based, human.
Conditions: not given
The procedure: A panel of synthetic cannabinoids (Cayman Chemical, #9002891) was tested for MHC class I-inducing capability in COLO 205 cells as described above. COLO 205 cells were treated with the compounds at a concentration of 35 μM and evaluated for cell surface MHC class I expression after 48 hours. Cells were harvested, stained with MHC-I mAb W6/32 (Thermo Fisher). MHC-I expression was determined by flow cytometry.
In the case of `CCCCCn1cc(C(=O)c2cccc3ccccc23)cc1-c1ccccc1F` [Example 85, [5-(2-fluorophenyl)-1-pentyl-1H-pyrrol-3-yl]-1-naphthalenyl-methanone], the “Induction Fold” value was 2.52 Fold.

Consider “(1-hexyl-1H-pyrrol-3-yl)-1-naphthalenyl-methanone [Example 72]”, for which the “Induction Fold” value was determined as 2.68 Fold.

For `COC(=O)[C@@H](NC(=O)c1nn(CCCC(C)F)c2ccccc12)C(C)C` (stereo partly drawn) [Example 268, methyl (1-(4-fluoropentyl)-1H-indazole-3-carbonyl)-1-valinate], the “Induction Fold” value stood at 1.55 Fold.

`C#CCCCCCCCCCNC(=O)Oc1cccc(-c2cccc(C(N)=O)c2)c1` [Example 182, 3′-carbamoyl-biphenyl-3-yl-undecynecarbamate]: the “Induction Fold” value was found to be 1.93 Fold.

Regarding `O=C(c1cccc2ccccc12)c1cn(CCN2CCOCC2)c2ccccc12` [Example 57, [1-[2-(4-morpholinyl)ethyl]-1H-indol-3-yl]-1-naphthalenyl-methanone], the “Induction Fold” value stood at 2.89 Fold.

Consider “[2-methyl-1-(1-methylhexyl)-1H-indol-3-yl]-1-naphthalenyl-methanone [Example 137]”, for which the “Induction Fold” value turned out to be 2.22 Fold.

With `CCCCCOc1ccc(C(=O)c2cccc3ccccc23)c2ccccc12` [Example 152, 1-naphthalenyl[4-(pentoxy)-1-naphthalenyl]-methanone], the “Induction Fold” value worked out at 2.12 Fold.

Regarding `CCCCCn1ccc(C(=O)c2cccc3ccccc23)c1` [Example 66, 1-naphthalenyl(1-pentyl-1H-pyrrol-3-yl)-methanone], the “Induction Fold” value worked out at 2.75 Fold.

As to `O=C(Oc1cccc2cccnc12)c1cn(CC2CCCCC2)c2ccccc12` [Example 38, 1-(cyclohexylmethyl)-8-quinolinyl ester-1H-indole-3-carboxylic acid], the “Induction Fold” value was 3.15 Fold.

The same assay, now with this note: Homo sapiens, COLO 205, 48 h, MHC-I expression, COLO 205 cells, compounds at 35 μM, 48 hours, flow cytometry (W6/32); read-out: Induction Fold.
As to `CC(C)C(C)n1cc(C(=O)c2ccc3ccccc3c2)c2ccccc21` (stereo not drawn) [Example 342, (1-(3-methylbutan-2-yl)-1H-indol-3-yl)(naphthalen-2-yl)methanone], the fold induction at 35 µM was determined as 1.17.

With `O=C(c1cn(CCCCCF)c2ccccc12)C12CC3CC(CC(C3)C1)C2` [Example 160, [1-(5-fluoropentyl)-1H-indol-3-yl]tricyclo[3.3.1.13,7]dec-1-yl-methanone], the fold induction at 35 µM was found to be 2.06.

As for `CCCCCn1cc(C(=O)c2cccc3ccc(CC)cc23)c2ccccc21` [Example 231, (7-ethyl-1-naphthalenyl)(1-pentyl-1H-indol-3-yl)-methanone], the fold induction at 35 µM was 1.72.

As for `NC(=O)[C@H](Cc1ccccc1)NC(=O)c1nn(Cc2ccc(F)cc2)c2ccccc12` [Example 213, N-[(1S)-2-amino-2-oxo-1-(phenylmethyl)ethyl]-1-[(4-fluorophenyl)methyl]-1H-indazole-3-carboxamide], the fold induction at 35 µM came out at 1.81.

Regarding `Cc1ccc(C(=O)c2cn(CCCCCF)c3ccccc23)c2ccccc12` [Example 155, [1-(5-fluoropentyl)-1H-indol-3-yl](4-methyl-1-naphthalenyl)-methanone], the fold induction at 35 µM stood at 2.08.

`CCC(C)Cn1cc(C(=O)c2cccc3ccccc23)c2ccccc21` (stereo not drawn) [Example 58, N-(2-methylbutyl)-3-(1-naphthoyl)-indole]: the fold induction at 35 µM was determined as 2.86.

For `COc1ccc(C(=O)c2c(C)n(CCN3CCOCC3)c3ccccc23)cc1` [Example 308], the fold induction at 35 µM amounted to 1.38.

Take `O=C(Oc1ccc2ncccc2c1)c1cn(CCCCCF)c2ccccc12` [Example 30, quinolin-6-yl 1-(5-fluoropentyl)-1H-indole-3-carboxylate]: the fold induction at 35 µM worked out at 3.4.

In the case of `CNCC(C)Cc1ccc2c(c1)OCO2` (stereo not drawn) [Example 348, N,β-dimethyl-1,3-benzodioxole-5-propanamine, monohydrochloride], the fold induction at 35 µM is 1.11.

On to `O=C(c1cccnc1)c1cn(CCCCCF)c2ccccc12` [Example 116, (1-(5-fluoropentyl)-1H-indol-3-yl)(pyridin-3-yl)methanone, monohydrochloride], for which the fold induction at 35 µM came out at 2.34.

Turning to `CC1(C)C(C(=O)c2cn(CCCCCCl)c3ccccc23)C1(C)C` [Example 138, (1-(5-chloropentyl)-1H-indol-3-yl)(2,2,3,3-tetramethylcyclopropyl)methanone], the fold induction at 35 µM stood at 2.21.

For the molecule `COc1ccc(CC(=O)c2cn(CCC3CCCCC3)c3ccccc23)cc1` [Example 44, 1-(1-(2-cyclohexylethyl)-1H-indol-3-yl)-2-(4-methoxyphenyl)ethanone], the fold induction at 35 µM was 3.03.

As to `CC(C)[C@H](NC(=O)c1nn(Cc2cccc(F)c2)c2ccccc12)C(N)=O` [Example 221, N-[(1S)-1-(aminocarbonyl)-2-methylpropyl]-1-[(3-fluorophenyl)methyl]-1H-indazole-3-carboxamide], the fold induction at 35 µM worked out at 1.77.

Turning to `CC(C)(C)Cn1cc(C(=O)c2ccc3ccccc3c2)c2ccccc21` [Example 168, [1-(2,2-dimethylpropyl)-1H-indol-3-yl]-2-naphthalenyl-methanone], the fold induction at 35 µM was 2.01.

On to `CCCCCCC(C)(C)c1cc(O)cc(OCCCCCCCC(=O)NC2CC2)c1` [Example 159, N-cyclopropyl-8-[3-(1,1-dimethylheptyl)-5-hydroxyphenoxy]-octanamide], for which the fold induction at 35 µM was 2.06.

For `O=C(Oc1ccc2cccnc2c1)c1cn(CCCCCF)c2ccccc12` [Example 12, quinolin-7-yl 1-(5-fluoropentyl)-1H-indole-3-carboxylate], the fold induction at 35 µM is 4.34.

On to `CC(F)CCCCn1cc(C(=O)c2cccc3ccccc23)c2ccccc21` (stereo not drawn) [Example 233, (1-(5-fluorohexyl)-1H-indol-3-yl)(naphthalen-1-yl)methanone], for which the fold induction at 35 µM turned out to be 1.71.

For the molecule `O=C(Nc1cccc(-c2ccccc2)c1)OC1CCCCC1` [Example 226, N-[1,1′-biphenyl]-3-yl-carbamic acid, cyclohexyl ester], the fold induction at 35 µM stood at 1.74.

In the case of `CCCCCn1nc(C(=O)NC(C(N)=O)C(C)(C)C)c2ccccc21` (stereo not drawn) [Example 76, N-[1-(aminocarbonyl)-2,2-dimethylpropyl]-1-pentyl-1H-indazole-3-carboxamide], the fold induction at 35 µM turned out to be 2.61.

Turning to `CC(C)(C)C(NC(=O)c1cc(-c2ccc(F)cc2)nn1CCCCCF)C(N)=O` (stereo not drawn) [Example 119, N-[1-(aminocarbonyl)-2,2-dimethylpropyl]-1-(5-fluoropentyl)-3-(4-fluorophenyl)-1H-pyrazole-5-carboxamide], the fold induction at 35 µM was found to be 2.33.

For the molecule `CC(C)[C@H](NC(=O)c1nn(CCCCCF)c2ccccc12)C(N)=O` [Example 292, N-[(1S)-1-(aminocarbonyl)-2-methylpropyl]-1-(5-fluoropentyl)-1H-indazole-3-carboxamide], the fold induction at 35 µM came to 1.43.

Consider `CCCCCn1cc(C(=O)c2cccc3c(CC)cccc23)c2ccccc21` [Example 255, (5-ethyl-1-naphthalenyl)(1-pentyl-1H-indol-3-yl)-methanone], for which the fold induction at 35 µM was found to be 1.6.

In the case of `O=C(c1ccc2c(c1)c1ccccc1n2CCCCCF)c1cccc2ccccc12` [Example 318, (9-(5-fluoropentyl)-9H-carbazol-3-yl)(naphthalen-1-yl)methanone], the fold induction at 35 µM was 1.31.

`COc1ccc(C(=O)c2c(C)n(CCN3CCOCC3)c3cc(Br)ccc23)cc1` [Example 310, [6-bromo-2-methyl-1-[2-(4-morpholinyl)ethyl]-1H-indol-3-yl](4-methoxyphenyl)-methanone]: the fold induction at 35 µM came to 1.37.

With `CCCCCn1cc(C(=O)c2cccc3ccc(Cl)cc23)c2ccccc21` [Example 146, (7-chloronaphthalen-1-yl)(1-pentyl-1H-indol-3-yl)methanone], the fold induction at 35 µM came to 2.16.

Turning to `COc1ccc(C(=O)c2c(C)n(CCN3CCOCC3)c3cc(I)ccc23)cc1` [Example 320, [6-iodo-2-methyl-1-[2-(4-morpholinyl)ethyl]-1H-indol-3-yl](4-methoxyphenyl)-methanone], the fold induction at 35 µM is 1.3.

Take `CCCCCn1cc(C(=O)c2cc(CC)cc3ccccc23)c2ccccc21` [Example 264, (3-ethyl-1-naphthalenyl)(1-pentyl-1H-indol-3-yl)-methanone]: the fold induction at 35 µM was 1.56.

For `CC(C)[C@H](NC(=O)c1nn(Cc2ccccc2F)c2ccccc12)C(N)=O` [Example 143, N-[(1S)-1-(aminocarbonyl)-2-methylpropyl]-1-[(2-fluorophenyl)methyl]-1H-indazole-3-carboxamide], the fold induction at 35 µM was 2.19.

As to `CCCCCn1cc(C(=O)c2cccc3cc(C)ccc23)c2ccccc21` [Example 240, (6-methylnaphthalen-1-yl)(1-pentyl-1H-indol-3-yl)methanone], the fold induction at 35 µM was 1.69.

Take `CC(C)(C)C(NC(=O)c1nn(Cc2ccc(F)cc2)c2ccccc12)C(N)=O` (stereo not drawn) [Example 247, N-[1-(aminocarbonyl)-2,2-dimethylpropyl]-1-[(4-fluorophenyl)methyl]-1H-indazole-3-carboxamide]: the fold induction at 35 µM stood at 1.64.

Still in this assay, the particulars now being: MHC-I expression, COLO 205 cells, compounds at 35 μM, 48 hours, flow cytometry (W6/32).
Consider `CCCCCn1nc(C(=O)OC23CC4CC(CC(C4)C2)C3)c2ccccc21` [Example 243, (3s,5s,7s)-adamantan-1-yl 1-pentyl-1H-indazole-3-carboxylate], for which the “Induction Fold” value was determined as 1.67 Fold.

For the molecule `COC(=O)[C@H](NC(=O)c1nn(CCCCCF)c2ccccc12)C(C)(C)C` [Example 179, N-[[1-(5-fluoropentyl)-1H-indazol-3-yl]carbonyl]-3-methyl-D-valine, methyl ester], the “Induction Fold” value was found to be 1.94 Fold.

Regarding `COC(=O)[C@@H](NC(=O)c1cn(CC2CCCCC2)c2ccccc12)C(C)C` [Example 229, methyl (1-(cyclohexylmethyl)-1H-indole-3-carbonyl)-1-valinate], the “Induction Fold” value came to 1.72 Fold.
